Measurements: ChEMBL document CHEMBL1145332, “Design of inhibitors of orotidine monophosphate decarboxylase using bioisosteric replacement and determination of inhibition kinetics” (J Med Chem, 2006)

Molecular target: T1, Orotidine 5'-phosphate decarboxylase (Saccharomyces cerevisiae S288c, UniProt P03962)
T1 sequence (P03962 whole entry): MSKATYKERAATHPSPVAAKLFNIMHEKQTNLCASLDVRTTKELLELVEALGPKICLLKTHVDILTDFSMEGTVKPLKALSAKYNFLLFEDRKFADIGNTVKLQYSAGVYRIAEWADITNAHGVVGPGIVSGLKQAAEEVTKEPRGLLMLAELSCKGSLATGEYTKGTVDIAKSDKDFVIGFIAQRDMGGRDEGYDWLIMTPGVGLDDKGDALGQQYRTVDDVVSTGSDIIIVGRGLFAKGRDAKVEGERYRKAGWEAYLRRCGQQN
Experiment: Inhibition of Saccharomyces cerevisiae ODCase at 25 degreeC by competitive binding assay

- Ki: 64 nM
SMILES: O=c1cnn([C@@H]2O[C@H](COP(=O)(O)O)[C@@H](O)[C@H]2O)c(=O)[nH]1 [6-AZA-URIDINE MONOPHOSPHATE]
